In PubChem BioAssay (NCI):
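How tested: cells in 96-well plates exposed to compound for 48 hours at five concentrations. GI50 = concentration required for 50% inhibition of growth. TGI: concentration producing complete growth inhibition.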

Tests used:
Experiment in all cases: NCI tumour cell line growth inhibition, 48 h
786-0 renal = system: 786-0 renal
A498 renal = system: A498 renal
A549 NSCLC = system: A549 NSCLC
ACHN renal = system: ACHN renal
BT-549 breast = system: BT-549 breast
CAKI-1 renal = system: CAKI-1 renal
CCRF-CEM leukemia = system: CCRF-CEM leukemia
COLO 205 colon = system: COLO 205 colon
DU-145 prostate = system: DU-145 prostate
EKVX NSCLC = system: EKVX NSCLC
HCC-2998 colon = system: HCC-2998 colon
HCT-116 colon = system: HCT-116 colon
HCT-15 colon = system: HCT-15 colon
HL-60(TB) leukemia = system: HL-60(TB) leukemia
HOP-62 NSCLC = system: HOP-62 NSCLC
HOP-92 NSCLC = system: HOP-92 NSCLC
HS 578T breast = system: HS 578T breast
HT29 colon = system: HT29 colon
IGROV1 ovarian = system: IGROV1 ovarian
K-562 leukemia = system: K-562 leukemia
KM12 colon = system: KM12 colon
LOX IMVI melanoma = system: LOX IMVI melanoma
M14 melanoma = system: M14 melanoma
MALME-3M melanoma = system: MALME-3M melanoma
MCF7 breast = system: MCF7 breast
MDA-MB-231 breast = system: MDA-MB-231 breast
MDA-MB-435 = system: MDA-MB-435
MDA-MB-468 breast = system: MDA-MB-468 breast
MOLT-4 leukemia = system: MOLT-4 leukemia
NCI-H226 lung = system: NCI-H226 lung
NCI-H23 lung = system: NCI-H23 lung
NCI-H460 lung = system: NCI-H460 lung
NCI-H522 lung = system: NCI-H522 lung
NCI/ADR-RES ovarian = system: NCI/ADR-RES ovarian
OVCAR-3 ovarian = system: OVCAR-3 ovarian
OVCAR-4 ovarian = system: OVCAR-4 ovarian
OVCAR-5 ovarian = system: OVCAR-5 ovarian
OVCAR-8 ovarian = system: OVCAR-8 ovarian
PC-3 prostate = system: PC-3 prostate
RPMI-8226 leukemia = system: RPMI-8226 leukemia
RXF 393 renal = system: RXF 393 renal
SF-268 CNS = system: SF-268 CNS
SF-295 CNS = system: SF-295 CNS
SF-539 CNS = system: SF-539 CNS
SK-MEL-2 melanoma = system: SK-MEL-2 melanoma
SK-MEL-28 melanoma = system: SK-MEL-28 melanoma
SK-MEL-5 melanoma = system: SK-MEL-5 melanoma
SK-OV-3 ovarian = system: SK-OV-3 ovarian
SN12C renal = system: SN12C renal
SNB-19 CNS = system: SNB-19 CNS
SNB-75 CNS = system: SNB-75 CNS
SR leukemia = system: SR leukemia
SW-620 colon = system: SW-620 colon
T-47D breast = system: T-47D breast
TK-10 renal = system: TK-10 renal
U251 CNS = system: U251 CNS
UACC-257 melanoma = system: UACC-257 melanoma
UACC-62 melanoma = system: UACC-62 melanoma
UO-31 renal = system: UO-31 renal

**Q.** What does the source list for CCc1ccccc1NC(=O)N/C(N)=N/c1nc2ccccc2s1?
**A.** GI50 (786-0 renal): 89.8 nM; TGI (786-0 renal): 5.14 µM; GI50 (A498 renal): 16.4 µM; TGI (A498 renal): 45.6 µM; GI50 (A549 NSCLC): 64 nM; TGI (A549 NSCLC): > 38.8 µM; GI50 (ACHN renal): 79.3 nM; TGI (ACHN renal): 6.21 µM; GI50 (BT-549 breast): 91 nM; TGI (BT-549 breast): 1790 nM; GI50 (CAKI-1 renal): 63.1 nM; TGI (CAKI-1 renal): 7.2 µM; GI50 (CCRF-CEM leukemia): 38.2 nM; TGI (CCRF-CEM leukemia): 13.5 µM; GI50 (COLO 205 colon): 29.4 nM; TGI (COLO 205 colon): 94 nM; GI50 (DU-145 prostate): 48.3 nM; TGI (DU-145 prostate): 2500 nM; GI50 (EKVX NSCLC): 50.3 nM; TGI (EKVX NSCLC): 16.1 µM; GI50 (HCC-2998 colon): 29.1 nM; TGI (HCC-2998 colon): 3.05 µM; GI50 (HCT-116 colon): 37.7 nM; TGI (HCT-116 colon): 1470 nM; GI50 (HCT-15 colon): 29.3 nM; TGI (HCT-15 colon): 7.03 µM; GI50 (HL-60(TB) leukemia): 33.4 nM; TGI (HL-60(TB) leukemia): 6.31 µM; GI50 (HOP-62 NSCLC): 69.6 nM; TGI (HOP-62 NSCLC): 4.55 µM; GI50 (HOP-92 NSCLC): 3.09 µM; TGI (HOP-92 NSCLC): 29.6 µM; GI50 (HS 578T breast): 28.1 nM; TGI (HS 578T breast): 7.27 µM; GI50 (HT29 colon): 31.6 nM; TGI (HT29 colon): 135 nM; GI50 (IGROV1 ovarian): 56.7 nM; TGI (IGROV1 ovarian): 15.2 µM; GI50 (K-562 leukemia): 23.3 nM; TGI (K-562 leukemia): 14.4 µM; GI50 (KM12 colon): 38.1 nM; TGI (KM12 colon): 11.1 µM; GI50 (LOX IMVI melanoma): 43.1 nM; TGI (LOX IMVI melanoma): 4.62 µM; GI50 (M14 melanoma): 28.6 nM; TGI (M14 melanoma): 911 nM; GI50 (MALME-3M melanoma): 62.2 nM; TGI (MALME-3M melanoma): 11.3 µM; GI50 (MCF7 breast): 32.9 nM; TGI (MCF7 breast): 12.3 µM; GI50 (MDA-MB-231 breast): 40.5 nM; TGI (MDA-MB-231 breast): 598 nM; GI50 (MDA-MB-435): < 14.6 nM; TGI (MDA-MB-435): 38.9 nM; GI50 (MDA-MB-468 breast): 23.3 nM; TGI (MDA-MB-468 breast): 62.5 nM; GI50 (MOLT-4 leukemia): 62.8 nM; TGI (MOLT-4 leukemia): 18.7 µM; GI50 (NCI-H226 lung): 144 nM; TGI (NCI-H226 lung): 1520 nM; GI50 (NCI-H23 lung): 45.4 nM; TGI (NCI-H23 lung): 5.48 µM; GI50 (NCI-H460 lung): 35.4 nM; TGI (NCI-H460 lung): 3.82 µM; GI50 (NCI-H522 lung): < 16.7 nM; TGI (NCI-H522 lung): 90 nM; GI50 (NCI/ADR-RES ovarian): 24.4 nM; TGI (NCI/ADR-RES ovarian): 64.3 nM; GI50 (OVCAR-3 ovarian): 39.6 nM; TGI (OVCAR-3 ovarian): 1550 nM; GI50 (OVCAR-4 ovarian): 1670 nM; TGI (OVCAR-4 ovarian): 24.7 µM; GI50 (OVCAR-5 ovarian): 53.3 nM; TGI (OVCAR-5 ovarian): 12 µM; GI50 (OVCAR-8 ovarian): 37 nM; TGI (OVCAR-8 ovarian): 3.52 µM; GI50 (PC-3 prostate): 52.8 nM; TGI (PC-3 prostate): 18.8 µM; GI50 (RPMI-8226 leukemia): 44.5 nM; TGI (RPMI-8226 leukemia): 21.1 µM; GI50 (RXF 393 renal): 22.5 nM; TGI (RXF 393 renal): 7.53 µM; GI50 (SF-268 CNS): 336 nM; TGI (SF-268 CNS): > 100 µM; GI50 (SF-295 CNS): 23.4 nM; TGI (SF-295 CNS): 2040 nM; GI50 (SF-539 CNS): 21.1 nM; TGI (SF-539 CNS): 64.2 nM; GI50 (SK-MEL-2 melanoma): 33.8 nM; TGI (SK-MEL-2 melanoma): 10.8 µM; GI50 (SK-MEL-28 melanoma): 2830 nM; TGI (SK-MEL-28 melanoma): 21.3 µM; GI50 (SK-MEL-5 melanoma): 31.1 nM; TGI (SK-MEL-5 melanoma): 116 nM; GI50 (SK-OV-3 ovarian): 150 nM; TGI (SK-OV-3 ovarian): 33.6 µM; GI50 (SN12C renal): 43.8 nM; TGI (SN12C renal): 6.91 µM; GI50 (SNB-19 CNS): 51.7 nM; TGI (SNB-19 CNS): 14.6 µM; GI50 (SNB-75 CNS): < 18 nM; TGI (SNB-75 CNS): 4.64 µM; GI50 (SR leukemia): 120 nM; TGI (SR leukemia): 21.6 µM; GI50 (SW-620 colon): 42.2 nM; TGI (SW-620 colon): 15.7 µM; GI50 (T-47D breast): 15.1 µM; TGI (T-47D breast): > 100 µM; GI50 (TK-10 renal): 4.49 µM; TGI (TK-10 renal): 50 µM; GI50 (U251 CNS): 37 nM; TGI (U251 CNS): 5.64 µM; GI50 (UACC-257 melanoma): 4.67 µM; TGI (UACC-257 melanoma): > 54.4 µM; GI50 (UACC-62 melanoma): 38.3 nM; TGI (UACC-62 melanoma): 22.7 µM; GI50 (UO-31 renal): 97.9 nM; TGI (UO-31 renal): 34.6 µM
